One data set deals with human erythrocytes. Kind of data set: Hemolytic activity against human erythrocytes. The format is cell-based.
Data set [1] has as its system T-47D human breast cancer cells. As to the kind of experiment: cells. The format is cell-based.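 Also: cell viability read as absorbance of formazan dye at 570 nm, each experiment run in triplicate.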
Data set [2] has as its system MCF-7 human breast cancer cells. As to the kind of experiment: cells. The format is cell-based. The following applies: Homo sapiens, MCF7, read-out: Cytotoxicity, IC50, MCF-7.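 Also: IC50 values, including those behind the selectivity ratio, derive from formazan absorbance at 570 nm, tested in triplicate.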
Another data set is described as follows: in vitro. The format is cell-based, human. The settings on record: human.
Data set [3] concerns MDA-MB-231 triple-negative breast cancer cells. Kind of data set: cells. The format is cell-based, human.

The values that follow come from publication PMC12299463, “Cladolosides of Groups S and T: Triterpene Glycosides from the Sea Cucumber Cladolabes schmeltzii with Unique Sulfation; Human Breast Cancer Cytotoxicity and QSAR” (Marine Drugs, 2025).

Structures can show the parent of a compound that is named as a salt.

Broadly, the IC50 is the point on the concentration scale where inhibition reaches its midpoint. As to `C=C(C)CC[C@@H](OC(C)=O)[C@]1(C)OC(=O)C23CC=C4[C@@H](CC[C@H]5C(C)(C)[C@@H](O[C@@H]6OC[C@@H](O[C@@H]7OC[C@@H](O)[C@H](O)[C@H]7O)[C@H](O)[C@H]6O[C@@H]6O[C@H](C)[C@@H](O[C@@H]7OC[C@@H](O)[C@H](O[C@@H]8O[C@H](COS(=O)(=O)O)[C@@H](O)[C@H](OC)[C@H]8O)[C@H]7O)[C@H](O)[C@H]6O)CC[C@]45C)[C@]2(C)C[C@H](OC(C)=O)[C@@H]31` (stereo partly drawn) [Cladoloside S (1), 3β-O-{6-O-sodium sulfate-3-O-methyl-β-D-glucopyranosyl-(1→3)-β-D-xylopyranosyl-(1→4)-β-D-quinovopyranosyl-(1→2)-[(1→4)-β-D-xylopyranosyl]-β-D-xylopyranosyl}-16S,22R-diacetoxyholosta-9,25-diene], in the data set with human erythrocytes, the “Hemolytic (membranolytic) activity, in words” value is “moderately active”. The “ED50, Erythrocytes (hemolytic activity)” value with human erythrocytes (1 h at 37 °C) was 3.40 ± 0.25 µM. Also, the IC50 in data set [1] (Homo sapiens, T47D, read-out: Cytotoxicity, IC50, T-47D) is 14.8 ± 0.71 µM; in data set [2], greater than 20 µM; in the data set “in vitro”, greater than 20 µM; in data set [3] (Homo sapiens, MDA-MB-231, read-out: Cytotoxicity, IC50, MDA-MB-231), 13.2 ± 1.08 µM. Besides, the “Selectivity Index (SI), T-47D” value in data set [1] (ratio of IC50 for healthy (MCF-10A) and T-47D cells) was greater than 1.35. Further, in data set [3] (ratio of IC50 for healthy (MCF-10A) and MDA-MB-231 cells), the “Selectivity Index (SI), MDA-MB-231” value is given as greater than 1.51.
